Laboratory results from US12396459B2, “Synergistically effective herbicide composition comprising pyridate and at least one defined 4-HPPD inhibitor” (BELCHIM CROP PROTECTION NV, priority 2018, dated 2025).

Assays:
Assay type in all cases: in vivo
Abutilon theophrasti = experiment: Field trial post-emergence in maize: ABUTH; conditions: 31-48 DAA; # = 2; g a.c./ha: PYR 300, MES 100, PYR + MES 300 + 90
Description: (§1) Herbicidal activity of herbicide compositions according to the first aspect of the present invention with regard to different types of unwanted vegetation was determined during trials performed on test fields (field trials). Individual compositions comprising pyridate and individual compositions comprising a defined 4-HPPD inhibitor are compared with a herbicide composition according to the invention comprising both pyridate and a defined 4-HPPD inhibitor. The expected activity of the combination of the active compounds pyridate and a defined 4-HPPD inhibitor is calculated according to above mentioned calculation method by Colby, in order to evaluate a synergistic effect between pyridate and a defined 4-HPPD inhibitor.
(§2) Herbicidal activity was determined by applying herbicide compositions on emerged unwanted vegetation on fields where maize was cultivated. Pyridate and a defined 4-HPPD inhibitor were applied as a tank mixture by mixing these active compounds prior to use in a spray tank. The corresponding mixture was in the form of a spray liquor. […] At a specified number of days after application (DAA), the degree of damage to the unwanted vegetation is rated in % of plants of unwanted vegetation that were killed, which was assessed by visually controlling the plants.

Anagallis arvensis = experiment: Field trial post-emergence in maize: ANGAR; conditions: 7-14 DAA; # = 2; g a.c./ha: PYR 300, MES 100, PYR + MES 300 + 90
Description: as §1, §2

Brassica napus (winter) = experiment: Field trial post-emergence in maize: BRSNW; conditions: # = 1, g a.c./ha: PYR 300, MES 100, PYR + MES 300 + 90
Description: as §1
(§3) Herbicidal activity was determined by applying herbicide compositions on emerged unwanted vegetation on fields where maize was cultivated. Pyridate and a defined 4-HPPD inhibitor were applied as a tank mixture by mixing these active compounds prior to use in a spray tank. The corresponding mixture was in the form of a spray liquor. Besides, spray liquors of individual compositions comprising pyridate and of individual compositions comprising a defined 4-HPPD inhibitor were used. Test plants of unwanted vegetation with a growth stage corresponding to BBCH 10-18 (according to the extended BBCH-scale) were sprayed with the active compound preparations such that particular desired amounts of active compounds are applied per unit area. Spray liquor was diluted with water to arrive at an application volume of 50 to 450 L/ha. At a specified number of days after application (DAA), the degree of damage to the unwanted vegetation is rated in % of plants of unwanted vegetation that were killed, which was assessed by visually controlling the plants.

Datura stramonium = experiment: Field trial post-emergence in maize: DATST; conditions: 7-14 DAA; # = 2; g a.c./ha: PYR 300, MES 100, PYR + MES 300 + 90
Description: as §1, §2

Digitaria sanguinalis [1] = experiment: Field trial post-emergence in maize: DIGSA; conditions: g a.c./ha: PYR 300, MES 100, PYR + MES 300 + 90
Description: as §1, §3

Galinsoga parviflora = experiment: Field trial post-emergence in maize: GASPA; conditions: 31-48 DAA; # = 3; g a.c./ha: PYR 300, MES 100, PYR + MES 300 + 90
Description: as §1, §2

Geranium sp. = experiment: Field trial post-emergence in maize: GERSS; conditions: # = 1, g a.c./ha: PYR 300, MES 100, PYR + MES 300 + 90
Description: as §1, §3

Persicaria maculosa = experiment: Field trial post-emergence in maize: POLPE; conditions: for herbicidal effect (h.e.): g a.c./ha: PYR 300, MES 100, PYR + MES 300 + 90
Description: as §1, §3

Stachys arvensis = experiment: Field trial post-emergence in maize: STAAR; conditions: 7-14 DAA; # = 1; g a.c./ha: PYR 300, MES 100, PYR + MES 300 + 90
Description: as §1, §2

Stellaria media = experiment: Field trial post-emergence in maize: STEME
Description: as §1, §3

Veronica persica = experiment: Examples 6-8 herbicidal effect: VERPE; conditions: 7 DAA
Matricaria chamomilla = experiment: Examples 6-8 herbicidal effect: MATCH; conditions: 7 DAA
Chenopodium album = experiment: Examples 6-8 herbicidal effect: CHEAL; conditions: 7 DAA
Digitaria sanguinalis [2] = experiment: Examples 6-8 herbicidal effect: DIGSA; conditions: 7 DAA
Atriplex patula = experiment: Field trial post-emergence in maize: ATXPA
Description: as §1, §3
(§4) Example 1 concerns a herbicide composition comprising a combination of pyridate and mesotrione, which was applied post-emergence on unwanted vegetation on a field where maize was cultivated, according to the test conditions mentioned above.

Kickxia elatine = experiment: Field trial post-emergence in maize: KICEL
Description: as §1, §3, §4

Lamium purpureum = experiment: Field trial post-emergence in maize: LAMPU
Description: as §1, §3, §4

Mercurialis annua = experiment: Field trial post-emergence in maize: MERAN
Description: as §1, §3, §4

Polygonum aviculare = experiment: Field trial post-emergence in maize: POLAV
Description: as §1, §3, §4

Rumex obtusifolius = experiment: Field trial post-emergence in maize: RUMOB
Description: as §1, §3, §4

[3] = g a.c./ha: MES 50, PYR + SMO 300 + 800
[4] = g a.c./ha: MES 80, PYR + MES 300 + 50

SMILES: CS(=O)(=O)c1ccc(C(=O)C2C(=O)CCCC2=O)c([N+](=O)[O-])c1 [MES, 2-(4-methylsulfonyl-2-nitrobenzoyl) cyclohexane-1,3-dione]
- herbicidal effect (h.e.) (Abutilon theophrasti): 91%
- herbicidal effect (h.e.) (Anagallis arvensis): 98%
- herbicidal effect (h.e.) (Brassica napus (winter); 7-14 DAA): 98%
- herbicidal effect (h.e.) (Brassica napus (winter); 18-28 DAA): 99%
- herbicidal effect (h.e.) (Datura stramonium): 98%
- herbicidal effect (h.e.) (Digitaria sanguinalis [1]; 7-14 DAA, # = 2): 53%
- herbicidal effect (h.e.) (Digitaria sanguinalis [1]; 18-28 DAA, # = 2): 47%
- herbicidal effect (h.e.) (Digitaria sanguinalis [1]; 31-48 DAA, # = 1): 54%
- herbicidal effect (h.e.) (Galinsoga parviflora): 97%
- herbicidal effect (h.e.) (Geranium sp.; 7-14 DAA): 44%
- herbicidal effect (h.e.) (Geranium sp.; 18-28 DAA): 41%
- herbicidal effect (h.e.) (Geranium sp.; 31-48 DAA): 31%
- herbicidal effect (h.e.) (Persicaria maculosa; 7-14 DAA, # = 3): 91%
- herbicidal effect (h.e.) (Persicaria maculosa; 31-48 DAA, # = 4): 89%
- MES h.e. (Persicaria maculosa; POLPE 14-20 DAA 45 g a.c./ha): 83%
- MES h.e. (Persicaria maculosa; POLPE 14-20 DAA 90 g a.c./ha): 98%
- MES h.e. (Persicaria maculosa; POLPE 14-20 DAA 135 g a.c./ha): 98%
- MES h.e. (Persicaria maculosa; POLPE 24-31 DAA 45 g a.c./ha): 93%
- herbicidal effect (h.e.) (Stachys arvensis): 54%
- herbicidal effect (h.e.) (Stellaria media; 18-28 DAA, # = 4, g a.c./ha: PYR 300, MES 100, PYR + MES 300 + 90): 98%
- MES h.e. (Stellaria media; STEME 14-20 DAA 45 g a.c./ha): 78%
- MES h.e. (Stellaria media; STEME 14-20 DAA 90 g a.c./ha): 93%
- MES h.e. (Stellaria media; STEME 14-20 DAA 135 g a.c./ha): 93%
- MES h.e. (Stellaria media; STEME 24-31 DAA 45 g a.c./ha): 70%
- MES h.e. (Stellaria media; STEME 24-31 DAA 90 g a.c./ha): 87%
- MES h.e. (Stellaria media; STEME 24-31 DAA 135 g a.c./ha): 93%
- herbicidal effect (h.e.) (Veronica persica; [3]): 33%
- herbicidal effect (h.e.) (Veronica persica; [4]): 57%
- herbicidal effect (h.e.) (Matricaria chamomilla; [3]): 25%
- herbicidal effect (h.e.) (Matricaria chamomilla; [4]): 53%
- herbicidal effect (h.e.) (Chenopodium album; [3]): 77%
- herbicidal effect (h.e.) (Chenopodium album; [4]): 92%
- herbicidal effect (h.e.) (Digitaria sanguinalis [2]; [3]): 95%
- herbicidal effect (h.e.) (Digitaria sanguinalis [2]; [4]): 92%
- MES h.e. (Atriplex patula; ATXPA 24-31 DAA 90 g a.c./ha): 97%
- MES h.e. (Atriplex patula; ATXPA 24-31 DAA 135 g a.c./ha): 97%
- MES h.e. (Kickxia elatine; KICEL 14-20 DAA 45 g a.c./ha): 0%
- MES h.e. (Kickxia elatine; KICEL 14-20 DAA 90 g a.c./ha): 8%
- MES h.e. (Kickxia elatine; KICEL 14-20 DAA 135 g a.c./ha): 0%
- MES h.e. (Kickxia elatine; KICEL 24-31 DAA 45 g a.c./ha): 0%
- MES h.e. (Kickxia elatine; KICEL 24-31 DAA 90 g a.c./ha): 0%
- MES h.e. (Kickxia elatine; KICEL 24-31 DAA 135 g a.c./ha): 0%
- MES h.e. (Lamium purpureum; LAMPU 14-20 DAA 45 g a.c./ha): 93%
- MES h.e. (Lamium purpureum; LAMPU 14-20 DAA 90 g a.c./ha): 98%
- MES h.e. (Lamium purpureum; LAMPU 14-20 DAA 135 g a.c./ha): 99%
- MES h.e. (Lamium purpureum; LAMPU 24-31 DAA 45 g a.c./ha): 89%
- MES h.e. (Lamium purpureum; LAMPU 24-31 DAA 90 g a.c./ha): 95%
- MES h.e. (Mercurialis annua; MERAN 14-20 DAA 45 g a.c./ha): 95%
- MES h.e. (Mercurialis annua; MERAN 24-31 DAA 45 g a.c./ha): 70%
- MES h.e. (Polygonum aviculare; POLAV 14-20 DAA 45 g a.c./ha): 61%
- MES h.e. (Polygonum aviculare; POLAV 14-20 DAA 90 g a.c./ha): 76%
- MES h.e. (Polygonum aviculare; POLAV 24-31 DAA 90 g a.c./ha): 58%
- MES h.e. (Rumex obtusifolius; RUMOB 14-20 DAA 45 g a.c./ha): 87%
- MES h.e. (Rumex obtusifolius; RUMOB 14-20 DAA 90 g a.c./ha): 95%
- MES h.e. (Rumex obtusifolius; RUMOB 14-20 DAA 135 g a.c./ha): 95%
